US20250101004A1, “NOVEL KALIRIN INHIBITORS FOR REGULATION OF SYNAPTIC PLASTICITY AND NEUROPATHIC PAIN TREATMENT” (Northwestern University, priority 2022, published 2025)
Read-outs that look alike come from different tables or passages of the source.

Columns and labels:
kalirin GEF domain [1] = molecular target: T1, kalirin GEF domain (Homo sapiens, UniProt O60229); assay: Fluorescence thermal shift (FTS) binding to kalirin GEF domain
kalirin = molecular target: T2, kalirin (Homo sapiens, UniProt O60229); assay: Miniaturized high-throughput GEF assay with bodipy-GDP loaded RAC1; assay type: biochemical
T2 construct: intrinsic activity of RAC1 in the absence of kalirin's GEF domain (No GEF)
Method: FIG. 11 illustrates that reaction rates from FIG. 10 were assessed and plotted against concentration.
This was assessed using a miniaturized high-throughput GEF assay, utilizing fluorescently labelled GDP (bodipy-GDP) loaded RAC1.

HEK293T cells = conditions: 24 hours, Cell-titre Glo
Method: Cell viability was assessed by cell-titre glo assay. […] Indicated values indicate the required concentration to reduce viability by 50%.
Compound was incubated with heterologous cells (HEK293T) for 24 hours, and cell death was measured using the Cell-titre Glo assay.

[2] = system: primary cultured rat neurons; assay: Multi-electrode array (MEA) analysis of electrical activity of primary cultured neurons; assay type: cell-based
Method: FIG. 16A-16F show multi-electrode array analyses of the electrical activity of primary cultured neurons was assessed in the presence of compound B04, alongside the known RAC1 inhibitor NSC23776. […] Dose response analysis confirmed activity of B04 (123 μM, FIG. 16D and FIG. +16F). However, NSC23766 (FIG. 16C and FIG. 16E) had 10× efficacy (7.4 μM) compared to previous results.
Indicated PP01 analogues were incubated with rat primary cultured cortical neurons at 50 μM to assess the ability to recapitulate PP01s ability to inhibit neuronal activity.
48 well multi-electrode arrays (MEAs) were seeded with 50,000 primary cultured rat neurons and grown to 3WIV. Cells were incubated with NSC23766 or B04 at 50 and 100 μM for 4 hours alongside vehicle control (1% DMSO, FIG. 16A-16B). Neuronal activity was assessed in terms of weighted mean firing rate (number of events per second across active electrodes) and burst frequency (>5 events in 100 ms within a single electrode) and network burst frequency (FIG. 16A-16D).
DRC curve analyses of NS23766 (FIGS. 16C and 16E) and B04 (FIGS. 16D and 16F) was performed to assess compound efficacy. […] This is likely due to reported off-target inhibition of NMDAr (Hou et al 2014).
Plate was treated with vehicle control or B04 for 4 hours. The % change from baseline was recorded. […] Drug resistance from overexpression is a known phenomenon, supporting target engagement (Palmer et al, 2014).

kalirin GEF domain [3] = molecular target: T1, kalirin GEF domain; assay: Cellular GEF assay (RAC-Glisa) in cells transfected with kalirin-GEF domain; assay type: cell-based; set-up: Cells were transfected with the kalirin-GEF domain; expressed in transfected cells; host or cells: HEK293T (inferred from the same paragraph's toxicity test; the sentence on transfection says only 'Cells')
From the text: Known compound, NSC23766 (FIGS. 14A and 14C), was run alongside B04 (FIGS. 14B and 14D) to confirm GEF inhibition (IC50 of NSC23766 matches published results).

CCN(CC)CCCC(C)Nc1nc(C)cc(Nc2ccc3nc(C)cc(N)c3c2)n1 (stereo not shown) [NSC23766]
binding to kalirin by FTS (thermodynamic stability of kalirin GEF domain) (kalirin GEF domain [1]): not bind to kalirin | inhibition of kalirin biochemical GEF activity (kalirin): inhibited GEF activity | cellular toxicity / tolerability (HEK293T cells): well tolerated | burst frequency ([2]; 4 hours, 50 and 100 μM): reduced | firing rate (weighted mean firing rate) ([2]; 4 hours, 50 and 100 μM): reduced | inhibitory efficacy in neurons compared to published reports and cellular activity ([2]; fold greater): 10 × | IC50 ([2]; primary cultured neurons, 4 hours treatment, FIG. 16C-16F, read-out: dose response activity on neuronal electrical activity): 7.4 µM | inhibition of kalirin activity (RAC1 activation) (kalirin GEF domain [3]): inhibit kalirin activity

Cc1cc2cc(Nc3ccnc(Nc4ccc5[nH]c(C)cc5c4)n3)ccc2[nH]1 [AZA1]
binding to kalirin by FTS (thermodynamic stability of kalirin GEF domain) (kalirin GEF domain [1]): not bind to kalirin | inhibition of kalirin biochemical GEF activity (kalirin): inhibited GEF activity | cellular toxicity / tolerability (HEK293T cells): Only NSC23766 and B04 were well tolerated

O=C1C=C2C(=CCOC2O)O1 (stereo not shown) [patulin]
binding to kalirin by FTS (thermodynamic stability of kalirin GEF domain) (kalirin GEF domain [1]): bond to kalirin | inhibition of kalirin biochemical GEF activity (kalirin): inhibited GEF activity

O=C1C=CC(=O)N1c1cccc([N+](=O)[O-])c1 [NPPD]
binding to kalirin by FTS (thermodynamic stability of kalirin GEF domain) (kalirin GEF domain [1]): not bind to kalirin | inhibition of kalirin biochemical GEF activity (kalirin): inhibited GEF activity | cellular toxicity / tolerability (HEK293T cells): Only NSC23766 and B04 were well tolerated

CC(C)c1cn2c(NC(=O)Cc3c[nH]c4ccccc34)cccc2n1 [NW12, 2-(1H-indol-3-yl)-N-[2-(propan-2-yl)-1H-imidazo[1,2-a]pyridine-5-yl]acetamide]
cellular toxicity / tolerability (HEK293T cells): suitable for in vitro cellular studies | IC50 ([2]; PP01 analogues, FIG. 31A-31C, read-out: IC50, inhibition of neuronal activity): < 5 µM | inhibition of neuronal activity ([2]; rat primary cultured cortical neurons, 50 μM, 4 and 24 hours): inhibited activity robustly
